This assay deals with pieces of apple (Golden delicious). Nature of the assay: Sensory evaluation of coated pieces of apple during 15 days storage at 4° C. To be noted: for Hydration: scale 1 to 10, 10 = complete hydration of the product surface; for Texture: scale 1 to 10, 10 = firm crisp texture; for Color: sensory scale 1 to 10, 10 = total absence of browning. On the procedure: Apples of the Golden delicious variety were used. They were washed on the surface and disinfected by immersion in a sodium hypochlorite (80 ppm) solution. After disinfection, the apples were cored and cut manually into […] (quarters), which were immediately coated. […] In any of the cases, the components were dissolved in water, by constant stirring, until completely dissolved, the temperature of both the water and of the solution being held at 6° C. until their use as coating. The pieces of apple were immersed for 1 minute in each of the solutions. In the case of the control sample, the pieces of apple were immersed in cold water for the same period of time. After this, the samples were drained for 1 minute in order to remove any excess coating that might remain on the surface of the fruit. Finally, the fruit was manually packaged in plastic tubs (PET), without the use of a modified atmosphere, and stored at 4° C. for 15 days. […] The scale of evaluation was from 1 to 10, 10 being the highest mark awarded to the parameter evaluated, namely, a product with the same quality as the freshly cut fruit, and 1 being a very bad quality product (rejectable).

[1] abbreviates: apple pieces, day 1 in storage at 4° C.
The mark [2] stands for this setting: apple pieces, day 8 in storage at 4° C.
The mark [3] stands for this setting: apple pieces, day 15 in storage at 4° C.

Consider “calcium ascorbate [Calcium ascorbate (6% p/p)]”, for which the “appearance of first symptoms of dehydration” value (apple pieces in storage at 4° C.) is listed as “from the first week of storage”. The “maintenance of the original color of the apple” value (apple pieces, 15 days storage at 4° C.) is reported as “throughout almost all of the period of storage”. Besides, under setting [1], the General appearance entry is given as “Good”, the Hydration was determined as 10, the Texture was 10 and the Color is reported as 10. Moreover, under setting [2], the General appearance result is “Dehydrated”, the Hydration turned out to be 5, the Texture is 8 and the Color came out at 9. Further, under setting [3], the General appearance result is “Very dehydrated,”, the Hydration is 4, the Texture was 7 and the Color was found to be 8.

The record behind these values is patent US20160324174A1, “EDIBLE COATING FOR PRESERVING PIECES OF FRUIT, PRODUCTION METHOD AND APPLICATION THEREOF” (PRODUCTION AND INNOVATION ON EDIBLE COATINGS, S.L., priority 2014, published 2016).
